Measurements reported in patent US20170190705A1, “Compositions and Methods for Inhibiting BMP” (THE BRIGHAM AND WOMAN'S HOSPITAL, INC., priority 2014, published 2017).

molecular target: T1, ALK2 (Homo sapiens, UniProt Q04771, Q207D); assay: Thermal shift kinase assay ALK2; format: binding; conditions: 10 μM inhibitor
T1 construct: His tag (TEV-cleavable) (N, cleaved yes); made in house; host or cells: Sf9 insect cells (baculovirus)
T1 sequence (Q04771 201-499 Q207D): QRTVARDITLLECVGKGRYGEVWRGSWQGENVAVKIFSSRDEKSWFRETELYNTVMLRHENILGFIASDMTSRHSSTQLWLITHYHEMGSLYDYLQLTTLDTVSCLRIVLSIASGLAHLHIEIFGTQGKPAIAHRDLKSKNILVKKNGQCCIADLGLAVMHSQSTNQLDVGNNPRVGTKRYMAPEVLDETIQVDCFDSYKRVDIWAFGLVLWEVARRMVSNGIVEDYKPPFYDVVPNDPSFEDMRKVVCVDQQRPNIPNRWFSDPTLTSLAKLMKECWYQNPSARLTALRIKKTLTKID
Protocol: Thermal melting experiments were performed using a Real Time PCR machine Mx3005p (Stratagene) with a protein concentration of 1-2 μM and 10 μM inhibitor as described by Niesen et al., Nat Protoc 2007, 2, 2212-21. Recombinant human kinases for DSF screening were prepared by SGC using the published methods of Sanvitale et al., PLoS One 2013, 8, e62721. The potency and selectivity of certain compounds of the invention based on thermal shift kinase and ligand induced transcriptional activity assays are shown in Table 2.

| SMILES | ΔTm at 10 µM [°C] |
| --- | --- |
| COc1cc(-c2cc(-c3cccc(O)c3)cnc2N)cc(OC)c1OC [Compound K02288, 3-(6-Amino-5-(3,4,5-trimethoxyphenyl)pyridin-3-yl)phenol, reference compound] | 13.2 |

same assay, conditions: ALK2 minus ALK5

| SMILES | ΔTmDiff. |
| --- | --- |
| COc1cc(-c2cc(-c3cccc(O)c3)cnc2N)cc(OC)c1OC [Compound K02288, 3-(6-Amino-5-(3,4,5-trimethoxyphenyl)pyridin-3-yl)phenol, reference compound] | 2.0 |
| CNc1ncc(-c2ccc(N3CCNCC3)cc2)cc1-c1cc(OC)c(OC)c(OC)c1 [Compound 24, N-methyl-5-(4-(piperazin-1-yl)phenyl)-3-(3,4,5-trimethoxyphenyl)pyridin-2-amine] | −0.5 |
| COc1cc(-c2cc(-c3cccc(NS(C)(=O)=O)c3)cnc2N)cc(OC)c1OC [Compound 13, N-(3-(6-amino-5-(3,4,5-trimethoxyphenyl)pyridin-3-yl)phenyl)methanesulfonamide] | 0.9 |
| COc1cc(-c2cc(-c3cccc(N4CCNCC4)c3)cnc2N)cc(OC)c1OC [Compound 14, 5-(3-(piperazin-1-yl)phenyl)-3-(3,4,5-trimethoxyphenyl)pyridin-2-amine] | 0.8 |
| COc1ccc(-c2cc(-c3ccc(N4CCNCC4)cc3)cnc2N)cc1OC [Compound 16, 3-(3,4-dimethoxyphenyl)-5-(4-(piperazin-1-yl)phenyl)pyridin-2-amine] | 4.3 |
| Nc1ncc(-c2cccc(N3CCNCC3)c2)cc1-c1ccnc2ccccc12 [Compound 30, 5-(3-(piperazin-1-yl)phenyl)-3-(quinolin-4-yl)pyridin-2-amine] | 2.5 |
| COc1ccc(-c2cc(-c3ccc(N4CCNCC4)cc3)cnc2N)cc1 [Compound 20, 3-(4-methoxyphenyl)-5-(4-(piperazin-1-yl)phenyl)pyridin-2-amine] | 4.5 |
| COc1cc(-c2cc(-c3ccc(N4CCNCC4)cc3)cnc2N)ccc1Cl [Compound 22, 3-(4-chloro-3-methoxyphenyl)-5-(4-(piperazin-1-yl)phenyl)pyridin-2-amine] | 2.7 |
| Nc1ncc(-c2ccc(N3CCNCC3)cc2)cc1-c1ccnc2ccccc12 [Compound 29] | 3.4 |
| COc1cccc(-c2cc(-c3ccc(N4CCNCC4)cc3)cnc2N)c1 [Compound 18, 3-(3-methoxyphenyl)-5-(4-(piperazin-1-yl)phenyl)pyridin-2-amine] | 3.8 |

system: BMP6; assay: Ligand induced transcriptional activity assay BMP6 (BRE-Luc); format: cell-based; conditions: cell-based signaling inhibition; read-out: BMP6 IC50

| SMILES | IC50 [nM] |
| --- | --- |
| COc1cc(-c2cc(-c3cccc(O)c3)cnc2N)cc(OC)c1OC [Compound K02288, 3-(6-Amino-5-(3,4,5-trimethoxyphenyl)pyridin-3-yl)phenol, reference compound] | 420 ± 170 |
| COc1cc(-c2cc(-c3cccc(NS(C)(=O)=O)c3)cnc2N)cc(OC)c1OC [Compound 13, N-(3-(6-amino-5-(3,4,5-trimethoxyphenyl)pyridin-3-yl)phenyl)methanesulfonamide] | 60 ± 10 |
| Nc1ncc(-c2cccc(N3CCNCC3)c2)cc1-c1ccnc2ccccc12 [Compound 30, 5-(3-(piperazin-1-yl)phenyl)-3-(quinolin-4-yl)pyridin-2-amine] | 520 ± 60 |
| COc1cc(-c2cc(-c3ccc(N4CCNCC4)cc3)cnc2N)ccc1Cl [Compound 22, 3-(4-chloro-3-methoxyphenyl)-5-(4-(piperazin-1-yl)phenyl)pyridin-2-amine] | 160 ± 10 |
| Nc1ncc(-c2ccc(N3CCNCC3)cc2)cc1-c1ccnc2ccccc12 [Compound 29] | 110 ± 50 |

system: HePG2 hepatocarcinoma cells; assay: not given; format: cell-based; conditions: human, 4 h, 1 μM
Protocol: The cells were incubated for 2 h (37° C. and 5% CO2) and allowed to settle and attach. Compounds of interest or DMSO were diluted in DMEM and added at final compound concentrations of 1 μM, 10 μM, and 100 μM. Cells were incubated for 4 hours and 24 hours after which the media was discarded. Cells were lysed by adding 30 μL of passive lysis buffer (Promega) and shaken at RT for 15 min. Cell viability was determined by quantifying the ATP present in each well by adding 10 μL of CellTiter-Glo (Promega) per well and measuring the light output Spectramax L luminometer (Molecular Devices) with an integration time of one second per well. Data was normalized to 100% viability for cells receiving only DMSO without any concurrent compound.

| SMILES | Cell viability [%] |
| --- | --- |
| COc1cc(-c2cc(-c3cccc(O)c3)cnc2N)cc(OC)c1OC [Compound K02288, 3-(6-Amino-5-(3,4,5-trimethoxyphenyl)pyridin-3-yl)phenol, reference compound] | 103 |
| CNc1ncc(-c2ccc(N3CCNCC3)cc2)cc1-c1cc(OC)c(OC)c(OC)c1 [Compound 24, N-methyl-5-(4-(piperazin-1-yl)phenyl)-3-(3,4,5-trimethoxyphenyl)pyridin-2-amine] | 95 |
| COc1cc(-c2cc(-c3cccc(NS(C)(=O)=O)c3)cnc2N)cc(OC)c1OC [Compound 13, N-(3-(6-amino-5-(3,4,5-trimethoxyphenyl)pyridin-3-yl)phenyl)methanesulfonamide] | 97 |
| COc1cc(-c2cc(-c3cccc(N4CCNCC4)c3)cnc2N)cc(OC)c1OC [Compound 14, 5-(3-(piperazin-1-yl)phenyl)-3-(3,4,5-trimethoxyphenyl)pyridin-2-amine] | 96 |
| Nc1ncc(-c2cccc(N3CCNCC3)c2)cc1-c1ccnc2ccccc12 [Compound 30, 5-(3-(piperazin-1-yl)phenyl)-3-(quinolin-4-yl)pyridin-2-amine] | 92 |
| COc1ccc(-c2cc(-c3ccc(N4CCNCC4)cc3)cnc2N)cc1 [Compound 20, 3-(4-methoxyphenyl)-5-(4-(piperazin-1-yl)phenyl)pyridin-2-amine] | 106 |
| COc1cc(-c2cc(-c3ccc(N4CCNCC4)cc3)cnc2N)ccc1Cl [Compound 22, 3-(4-chloro-3-methoxyphenyl)-5-(4-(piperazin-1-yl)phenyl)pyridin-2-amine] | 96 |
| Nc1ncc(-c2ccc(N3CCNCC3)cc2)cc1-c1ccnc2ccccc12 [Compound 29] | 91 |
| COc1cccc(-c2cc(-c3ccc(N4CCNCC4)cc3)cnc2N)c1 [Compound 18, 3-(3-methoxyphenyl)-5-(4-(piperazin-1-yl)phenyl)pyridin-2-amine] | 98 |

same assay, conditions: human, 4 h, 10 μM

| SMILES | Cell viability [%] |
| --- | --- |
| COc1cc(-c2cc(-c3cccc(O)c3)cnc2N)cc(OC)c1OC [Compound K02288, 3-(6-Amino-5-(3,4,5-trimethoxyphenyl)pyridin-3-yl)phenol, reference compound] | 107 |
| CNc1ncc(-c2ccc(N3CCNCC3)cc2)cc1-c1cc(OC)c(OC)c(OC)c1 [Compound 24, N-methyl-5-(4-(piperazin-1-yl)phenyl)-3-(3,4,5-trimethoxyphenyl)pyridin-2-amine] | 105 |
| COc1cc(-c2cc(-c3cccc(NS(C)(=O)=O)c3)cnc2N)cc(OC)c1OC [Compound 13, N-(3-(6-amino-5-(3,4,5-trimethoxyphenyl)pyridin-3-yl)phenyl)methanesulfonamide] | 100 |
| COc1cc(-c2cc(-c3cccc(N4CCNCC4)c3)cnc2N)cc(OC)c1OC [Compound 14, 5-(3-(piperazin-1-yl)phenyl)-3-(3,4,5-trimethoxyphenyl)pyridin-2-amine] | 110 |
| Nc1ncc(-c2cccc(N3CCNCC3)c2)cc1-c1ccnc2ccccc12 [Compound 30, 5-(3-(piperazin-1-yl)phenyl)-3-(quinolin-4-yl)pyridin-2-amine] | 104 |
| COc1ccc(-c2cc(-c3ccc(N4CCNCC4)cc3)cnc2N)cc1 [Compound 20, 3-(4-methoxyphenyl)-5-(4-(piperazin-1-yl)phenyl)pyridin-2-amine] | 102 |
| COc1cc(-c2cc(-c3ccc(N4CCNCC4)cc3)cnc2N)ccc1Cl [Compound 22, 3-(4-chloro-3-methoxyphenyl)-5-(4-(piperazin-1-yl)phenyl)pyridin-2-amine] | 104 |
| Nc1ncc(-c2ccc(N3CCNCC3)cc2)cc1-c1ccnc2ccccc12 [Compound 29] | 104 |
| COc1cccc(-c2cc(-c3ccc(N4CCNCC4)cc3)cnc2N)c1 [Compound 18, 3-(3-methoxyphenyl)-5-(4-(piperazin-1-yl)phenyl)pyridin-2-amine] | 101 |

same assay, conditions: human, 4 h, 100 μM

| SMILES | Cell viability [%] |
| --- | --- |
| COc1cc(-c2cc(-c3cccc(O)c3)cnc2N)cc(OC)c1OC [Compound K02288, 3-(6-Amino-5-(3,4,5-trimethoxyphenyl)pyridin-3-yl)phenol, reference compound] | 115 |
| CNc1ncc(-c2ccc(N3CCNCC3)cc2)cc1-c1cc(OC)c(OC)c(OC)c1 [Compound 24, N-methyl-5-(4-(piperazin-1-yl)phenyl)-3-(3,4,5-trimethoxyphenyl)pyridin-2-amine] | 86 |
| COc1cc(-c2cc(-c3cccc(NS(C)(=O)=O)c3)cnc2N)cc(OC)c1OC [Compound 13, N-(3-(6-amino-5-(3,4,5-trimethoxyphenyl)pyridin-3-yl)phenyl)methanesulfonamide] | 95 |
| COc1cc(-c2cc(-c3cccc(N4CCNCC4)c3)cnc2N)cc(OC)c1OC [Compound 14, 5-(3-(piperazin-1-yl)phenyl)-3-(3,4,5-trimethoxyphenyl)pyridin-2-amine] | 99 |
| Nc1ncc(-c2ccc(N3CCNCC3)cc2)cc1-c1ccnc2ccccc12 [Compound 29] | 108 |
| COc1cccc(-c2cc(-c3ccc(N4CCNCC4)cc3)cnc2N)c1 [Compound 18, 3-(3-methoxyphenyl)-5-(4-(piperazin-1-yl)phenyl)pyridin-2-amine] | 106 |

same assay, conditions: human, 24 h, 1 μM

| SMILES | Cell viability [%] |
| --- | --- |
| COc1cc(-c2cc(-c3cccc(O)c3)cnc2N)cc(OC)c1OC [Compound K02288, 3-(6-Amino-5-(3,4,5-trimethoxyphenyl)pyridin-3-yl)phenol, reference compound] | 106 |
| CNc1ncc(-c2ccc(N3CCNCC3)cc2)cc1-c1cc(OC)c(OC)c(OC)c1 [Compound 24, N-methyl-5-(4-(piperazin-1-yl)phenyl)-3-(3,4,5-trimethoxyphenyl)pyridin-2-amine] | 101 |
| COc1cc(-c2cc(-c3cccc(NS(C)(=O)=O)c3)cnc2N)cc(OC)c1OC [Compound 13, N-(3-(6-amino-5-(3,4,5-trimethoxyphenyl)pyridin-3-yl)phenyl)methanesulfonamide] | 101 |
| COc1cc(-c2cc(-c3cccc(N4CCNCC4)c3)cnc2N)cc(OC)c1OC [Compound 14, 5-(3-(piperazin-1-yl)phenyl)-3-(3,4,5-trimethoxyphenyl)pyridin-2-amine] | 99 |
| Nc1ncc(-c2cccc(N3CCNCC3)c2)cc1-c1ccnc2ccccc12 [Compound 30, 5-(3-(piperazin-1-yl)phenyl)-3-(quinolin-4-yl)pyridin-2-amine] | 104 |
| COc1ccc(-c2cc(-c3ccc(N4CCNCC4)cc3)cnc2N)cc1 [Compound 20, 3-(4-methoxyphenyl)-5-(4-(piperazin-1-yl)phenyl)pyridin-2-amine] | 108 |
| COc1cc(-c2cc(-c3ccc(N4CCNCC4)cc3)cnc2N)ccc1Cl [Compound 22, 3-(4-chloro-3-methoxyphenyl)-5-(4-(piperazin-1-yl)phenyl)pyridin-2-amine] | 101 |
| Nc1ncc(-c2ccc(N3CCNCC3)cc2)cc1-c1ccnc2ccccc12 [Compound 29] | 108 |
| COc1cccc(-c2cc(-c3ccc(N4CCNCC4)cc3)cnc2N)c1 [Compound 18, 3-(3-methoxyphenyl)-5-(4-(piperazin-1-yl)phenyl)pyridin-2-amine] | 103 |

same assay, conditions: human, 24 h, 10 μM

| SMILES | Cell viability [%] |
| --- | --- |
| COc1cc(-c2cc(-c3cccc(O)c3)cnc2N)cc(OC)c1OC [Compound K02288, 3-(6-Amino-5-(3,4,5-trimethoxyphenyl)pyridin-3-yl)phenol, reference compound] | 110 |
| CNc1ncc(-c2ccc(N3CCNCC3)cc2)cc1-c1cc(OC)c(OC)c(OC)c1 [Compound 24, N-methyl-5-(4-(piperazin-1-yl)phenyl)-3-(3,4,5-trimethoxyphenyl)pyridin-2-amine] | 86 |
| COc1cc(-c2cc(-c3cccc(NS(C)(=O)=O)c3)cnc2N)cc(OC)c1OC [Compound 13, N-(3-(6-amino-5-(3,4,5-trimethoxyphenyl)pyridin-3-yl)phenyl)methanesulfonamide] | 98 |
| COc1cc(-c2cc(-c3cccc(N4CCNCC4)c3)cnc2N)cc(OC)c1OC [Compound 14, 5-(3-(piperazin-1-yl)phenyl)-3-(3,4,5-trimethoxyphenyl)pyridin-2-amine] | 93 |
| Nc1ncc(-c2cccc(N3CCNCC3)c2)cc1-c1ccnc2ccccc12 [Compound 30, 5-(3-(piperazin-1-yl)phenyl)-3-(quinolin-4-yl)pyridin-2-amine] | 92 |
| COc1ccc(-c2cc(-c3ccc(N4CCNCC4)cc3)cnc2N)cc1 [Compound 20, 3-(4-methoxyphenyl)-5-(4-(piperazin-1-yl)phenyl)pyridin-2-amine] | 104 |
| COc1cc(-c2cc(-c3ccc(N4CCNCC4)cc3)cnc2N)ccc1Cl [Compound 22, 3-(4-chloro-3-methoxyphenyl)-5-(4-(piperazin-1-yl)phenyl)pyridin-2-amine] | 81 |
| Nc1ncc(-c2ccc(N3CCNCC3)cc2)cc1-c1ccnc2ccccc12 [Compound 29] | 84 |
| COc1cccc(-c2cc(-c3ccc(N4CCNCC4)cc3)cnc2N)c1 [Compound 18, 3-(3-methoxyphenyl)-5-(4-(piperazin-1-yl)phenyl)pyridin-2-amine] | 100 |

same assay, conditions: human, 24 h, 100 μM

| SMILES | Cell viability [%] |
| --- | --- |
| COc1cc(-c2cc(-c3cccc(NS(C)(=O)=O)c3)cnc2N)cc(OC)c1OC [Compound 13, N-(3-(6-amino-5-(3,4,5-trimethoxyphenyl)pyridin-3-yl)phenyl)methanesulfonamide] | 82 |
| Nc1ncc(-c2cccc(N3CCNCC3)c2)cc1-c1ccnc2ccccc12 [Compound 30, 5-(3-(piperazin-1-yl)phenyl)-3-(quinolin-4-yl)pyridin-2-amine] | 5 |
